From paper PMC5575475 (Angewandte Chemie (International Ed. in English), 2017) come the findings set out here.

Where two headings read alike, the source gives them in different places.

In data set [1] the target is 14‐3‐3β adapter protein (dimer) (UniProt P31946). Description: fluorescence polarisation. On the technique in general: In fluorescence polarisation assays a small probe gives low polarisation when free and higher when bound to something large.
Data set [2] shares this target. Nature of the data set: fluorescence polarisation. This is another data set of the same source.
In data set [3] the target is T1, 14-3-3β (Homo sapiens, UniProt P31946).
T1 sequence (P31946 1-246): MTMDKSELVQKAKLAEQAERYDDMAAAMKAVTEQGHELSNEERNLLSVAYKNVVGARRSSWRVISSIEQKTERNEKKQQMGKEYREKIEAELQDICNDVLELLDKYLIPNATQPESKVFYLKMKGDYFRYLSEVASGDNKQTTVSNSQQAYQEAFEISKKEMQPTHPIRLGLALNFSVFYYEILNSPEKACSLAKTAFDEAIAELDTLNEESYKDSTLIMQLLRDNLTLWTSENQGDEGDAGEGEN
Type of data set: binding. The conditions noted are these: at very low and very high FGG-ERα peptide concentrations.

Data set [4] deals with T1, 14-3-3β. Type of data set: binding.
The data set “crystal structure” concerns the molecule itself. Description: crystal structure.
Setting [5] is: FGG-ERα titration at constant Q8 concentrations.

A word on the IC50: it is the concentration that gives 50% inhibition. Low readings indicate greater potency in that assay, high ones weaker potency in that assay. With “FGG‐ERα phosphopeptide (15‐mer: N‐terminal FGG motif fused to the wild‐type 14‐3‐3‐binding epitope of estrogen receptor α)”, the IC50 in data set [1] was determined as 1000 nM; in data set [2] it was 70 nM.

Regarding `O=C1N2CN3C(=O)N4CN5C(=O)N6CN7C(=O)N8CN9C(=O)N%10CN%11C(=O)N%12CN%13C(=O)N%14CN%15C(=O)N%16CN1C1C2N2CN%17C(=O)N(CN%18C(=O)N(CN%19C(=O)N(CN%20C(=O)N(CN%21C(=O)N(CN%22C(=O)N(CN%23C(=O)N(CN1C2=O)C%16C%15%23)C%14C%13%22)C%12C%11%21)C%10C9%20)C8C7%19)C6C5%18)C4C3%17` (stereo not shown) [Q8, Cucurbit[8]uril], the “effect of Q8” value at 14-3-3β [3] is listed as “negligible”. Also, at 14-3-3β [4] (setting [5]), the “Q8 concentration at which the enhancement effect appears to saturate” value is given as “approximately 10 μM” and the “combinatorial inhibition at high Q8 concentrations” value is “no evidence of combinatorial inhibition”.

Take Cucurbit[7]uril [Q7]: the “enhancement of apparent affinity of FGG-ERα for 14-3-3” value on 14-3-3β [4] (Q7 instead of Q8 (Figure 2E)) was “did not enhance the apparent affinity”.

B1: truncated 14‐3‐3βΔC variant (domain or fragment)
chain: QGSMTMDKSELVQKAKLAEQAERYDDMAAAMKAVTEQGHELSNEERNLLSVAYKNVVGARRSSWRVISSIEQKTERNEKKQQMGKEYREKIEAELQDICNDVLELLDKYLIPNATQPESKVFYLKMKGDYFRYLSEVASGDNKQTTVSNSQQAYQEAFEISKKEMQPTHPIRLGLALNFSVFYYEILNSPEKACSLAKTAFDEAIAELDTLNEESYKDSTLIMQLLRDNLTLWTSENQGDEGDAGEGEN
Broadly, the stoichiometry N is the number of molecules, sites or subunits per partner or assembly. As for B1, the “stoichiometry N” value in the data set “crystal structure” was found to be 2.
